In one data set the target is T1, IL-23R (Homo sapiens, UniProt Q5VWK5).
T1 construct: host or cells: HEK293
T1 sequence (Q5VWK5 24-629): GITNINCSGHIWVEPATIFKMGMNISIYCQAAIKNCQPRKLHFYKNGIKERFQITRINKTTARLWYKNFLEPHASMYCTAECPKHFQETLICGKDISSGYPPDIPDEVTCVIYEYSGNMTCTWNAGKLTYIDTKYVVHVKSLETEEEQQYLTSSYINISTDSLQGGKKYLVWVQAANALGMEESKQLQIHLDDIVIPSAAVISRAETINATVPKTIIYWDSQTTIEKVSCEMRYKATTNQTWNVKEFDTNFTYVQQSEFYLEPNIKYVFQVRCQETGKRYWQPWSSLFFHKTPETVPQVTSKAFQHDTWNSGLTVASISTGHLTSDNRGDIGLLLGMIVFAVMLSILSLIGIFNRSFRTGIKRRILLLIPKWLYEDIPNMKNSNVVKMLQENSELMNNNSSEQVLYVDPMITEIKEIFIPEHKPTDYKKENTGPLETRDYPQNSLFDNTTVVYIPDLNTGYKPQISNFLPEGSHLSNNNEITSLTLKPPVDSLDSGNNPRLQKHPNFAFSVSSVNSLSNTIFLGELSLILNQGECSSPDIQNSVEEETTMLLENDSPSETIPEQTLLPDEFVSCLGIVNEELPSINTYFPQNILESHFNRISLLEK
Nature of the data set: IL23R Reporter Assay. Type of data set: cell-based. Conditions: HEK293 cells containing IL-23R, IL-12RP1 and STAT-inducible firefly luciferase reporter; 10 ng/mL IL-23 (EC90); 5 h at 37° C.; read-out: IL23R Reporter Assay.

Data set [1] in a line: Exposed Polar Surface Area (EPSA). Format: physicochemical. The note with it: SFC on Chirex 3014 column, sample 1 mM DMSO stock. In a few lines:
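Retention-based polarity: supercritical CO2 with 20 mM ammonium formate in MeOH (5–60%, 20%/min), Chirex 3014 column, 35 °C. Calibrated against 8 standards to give EPSA (Å^2); each sample measured twice.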

Like-named read-outs stand apart in the source and are kept apart here. Starred links: 1 amine or outer side, 2 acyl side, 3 side chain; linkers in the order of their positions; H or OH if unused. Positions of bridges follow the written chain, without caps; N, C: chain ends. Non-standard residues stand in square brackets, D forms with d. Residues, ends and D or L forms follow the SMILES beside them. Groups on a side chain read outwards from the residue. *: point of attachment. X62 = C[N+]1(CCCCc2cn(-c3ccc(C[C@H](N[*:1])C(=O)[*:2])cc3)nn2)CCOCC1; Me3N+(CH2)2O(CH2)2O(CH2)2CO = C[N+](C)(C)CCOCCOCCC(=O)*; X35 = Cc1cccc2c(C[C@H](N[*:1])C(=O)[*:2])cn(C)c12; CH2CH2OCH2CH2OCH2CH2NMe3+ = C[N+](C)(C)CCOCCOCC*; Trp(7-Me) = Cc1cccc2c(C[C@H](N)C(=O)O)c[nH]c12; X20 = C[N+](C)(C)CC[C@H](N[*:1])C(=O)[*:2]; Decanoyl(3,6,9-trioxa) = COCCOCCOCC(=O)*; γGlu = O=C(O)[C@H](CCC(=O)[*:2])N[*:1]; 2Nal = N[C@@H](Cc1ccc2ccccc2c1)C(=O)O; AEF = NCCOc1ccc(C[C@H](N)C(=O)O)cc1; X24 = C[N+](C)(CCN[*:1])CC(=O)[*:2]; PEG6 = NCCOCCOCCOCCOCCOCCOCCC(=O)O; 3Pal = N[C@@H](Cc1cccnc1)C(=O)O; Ethyl(2-guanidino) = N=C(N)NCC*; Lys(Me) = CNCCCC[C@H](N)C(=O)O; NMeK = CN[C@@H](CCCCN)C(=O)O; Pen = CC(C)(S)[C@H](N)C(=O)O; Lauroyl = CCCCCCCCCCCC(=O)*; Thp = NC1(C(=O)O)CCOCC1; X3 = C[N+](C)(C)CCCCC*; AEEA = NCCOCCOCC(=O)O; Sar = CNCC(=O)O; X2 = CNCC*

As to `CC(=O)NCCCC[C@@H]1NC(=O)[C@H](Cc2c[nH]c3c(C)cccc23)NC(=O)[C@H]([C@@H](C)O)NC(=O)[C@H](CC(N)=O)NC(=O)[C@@H](NC(C)=O)C(C)(C)SSC(C)(C)[C@@H](C(=O)N[C@@H](Cc2ccc(OCCCCC[N+](C)(C)C)cc2)C(=O)N[C@@H](Cc2ccc3ccccc3c2)C(=O)NC2(C(=O)N[C@@H](CCC(=O)O)C(=O)N[C@@H](CC(N)=O)C(=O)N[C@@H](Cc3cccnc3)C(=O)N(C)CC(N)=O)CCOCC2)NC1=O` [compound 430, MeCO-Pen(3)-N-T-7MeW-K(Ac)-Pen(3)-TMAPF-2Nal-THP-E-N-3Pya-Sar-CONH2] (Ac-[Pen]NT[Trp(7-Me)]K(Ac)[Pen]Y(X3)[2Nal][Thp]EN[3Pal][Sar]-NH2; disulfide 1-6 (inferred)), at IL-23R, the IC50 stood at 2.6 nM. Besides, the EPSA in data set [1] (read-out: EPSA) was determined as 167 A^2.

For the compound `CNCCOc1ccc(C[C@H](NC(=O)[C@H]2NC(=O)[C@H](CCCCN(C)C(C)=O)NC(=O)[C@H](Cc3c[nH]c4c(C)cccc34)NC(=O)[C@H]([C@@H](C)O)NC(=O)[C@H](CC(=O)NC)NC(=O)[C@@H](NC(C)=O)C(C)(C)SSC2(C)C)C(=O)N[C@@H](Cc2ccc3ccccc3c2)C(=O)NC2(C(=O)N[C@@H](CCCCN(C)C(C)=O)C(=O)N[C@@H](CC(N)=O)C(=O)N[C@@H](Cc3cccnc3)C(=O)N(C)CC(=O)NC)CCOCC2)cc1` [SEQ ID 67] (Ac-[Pen]D(NHMe)T[Trp(7-Me)][Lys(Me)](Ac)[Pen]Y(X2)[2Nal][Thp][Lys(Me)](Ac)N[3Pal][Sar]-NHMe; disulfide 1-6 (inferred)), the IC50 on IL-23R was 1050 nM. The EPSA in data set [1] (listed as 2) is 184 Å^2; in data set [1] (read-out: EPSA) it was 150 A^2.

As to `CC(=O)NCCCC[C@@H]1NC(=O)[C@H](Cc2cn(C)c3c(C)cccc23)NC(=O)[C@H]([C@@H](C)O)NC(=O)[C@H](CC(N)=O)NC(=O)[C@@H](NC(C)=O)C(C)(C)SSC(C)(C)[C@@H](C(=O)N[C@@H](Cc2ccc(OCCN)cc2)C(=O)N[C@@H](Cc2ccc3ccccc3c2)C(=O)NC2(C(=O)N[C@@H](CCC(=O)O)C(=O)N[C@@H](CC(N)=O)C(=O)N[C@@H](Cc3cccnc3)C(=O)N(C)CC(N)=O)CCOCC2)NC1=O` [compound 166] (Ac-[Pen]NT[X35]K(Ac)[Pen][AEF][2Nal][Thp]EN[3Pal][Sar]-NH2; disulfide 1-6 (inferred)), the IC50 on IL-23R is 3 nM. Further, the EPSA in data set [1] (read-out: EPSA) came to 179 A^2.

For the compound `CCCCCCCCCCCC(=O)N[C@@H](CCC(=O)NCCOCCOCCOCCOCCOCCOCCC(=O)NCCOCCOCC(=O)NCCCC[C@@H](C(N)=O)N(C)C(=O)[C@H](Cc1cccnc1)NC(=O)[C@H](CC(N)=O)NC(=O)[C@H](CCCCN(C)C(C)=O)NC(=O)C1(NC(=O)[C@H](Cc2ccc3ccccc3c2)NC(=O)[C@H](Cc2ccc(OCCCCC[N+](C)(C)C)cc2)NC(=O)[C@H]2NC(=O)[C@H](CCCCNC(C)=O)NC(=O)[C@H](Cc3c[nH]c4c(C)cccc34)NC(=O)[C@H]([C@@H](C)O)NC(=O)[C@H](CC(=O)N(C)C)NC(=O)[C@@H](NC(=O)CCOCCOCC[N+](C)(C)C)C(C)(C)SSC2(C)C)CCOCC1)C(=O)O` [compound 360, cPEG3aCO-Pen(3)-N(N(Me)2)-T-7MeW-K(Ac)-Pen(3)-TMAPF-2Nal-THP-K(NMeac)-N-3Pya-NMeK(PEG2PEG6gEC12)-CONH2] ({Me3N+(CH2)2O(CH2)2O(CH2)2CO}-[Pen]D(NMe2)T[Trp(7-Me)]K(Ac)[Pen]Y(X3)[2Nal][Thp][Lys(Me)](Ac)N[3Pal][NMeK]([AEEA-PEG6-γGlu-Lauroyl])-NH2; disulfide 1-6), the IC50 on IL-23R came to 8.4 nM. Besides, in data set [1] (read-out: EPSA), the EPSA is 166 A^2.

Consider `CC(=O)N(C)CCCC[C@@H]1NC(=O)[C@H](Cc2c[nH]c3c(C)cccc23)NC(=O)[C@H]([C@@H](C)O)NC(=O)[C@H](CC(=O)N(C)C)NC(=O)[C@@H](NC(=O)CCOCCOCC[N+](C)(C)C)C(C)(C)SSC(C)(C)[C@@H](C(=O)N[C@@H](Cc2ccc(-n3cc(CCCC[N+]4(C)CCOCC4)nn3)cc2)C(=O)N[C@@H](Cc2ccc3ccccc3c2)C(=O)NC2(C(=O)N[C@@H](CCCCN(C)C(C)=O)C(=O)N[C@@H](CC(N)=O)C(=O)N[C@@H](Cc3cccnc3)C(=O)N(C)CC(=O)N(C)C)CCOCC2)NC1=O` [compound 336, cPEG3aCO-Pen(3)-N(N(Me)2)-T-7MeW-K(NMeAc)-Pen(3)-F(4TzlMMo4)-2Nal-THP-K(NMeAc)-N-3Pya-Sar-CON(Me)2] ({Me3N+(CH2)2O(CH2)2O(CH2)2CO}-[Pen]D(NMe2)T[Trp(7-Me)][Lys(Me)](Ac)[Pen][X62][2Nal][Thp][Lys(Me)](Ac)N[3Pal][Sar]-NMe2; disulfide 1-6), for which, at IL-23R, the IC50 was found to be 1.5 nM. Also, the EPSA in data set [1] (read-out: EPSA) is 156 A^2.

As for `CC(=O)N(C)CCCC[C@@H]1NC(=O)[C@H](Cc2c[nH]c3c(C)cccc23)NC(=O)[C@H]([C@@H](C)O)NC(=O)[C@H](CC[N+](C)(C)C)NC(=O)[C@@H](NC(=O)CCOCCOCC[N+](C)(C)C)C(C)(C)SSC(C)(C)[C@@H](C(=O)N[C@@H](Cc2ccc(OCCOCCOCC[N+](C)(C)C)cc2)C(=O)N[C@@H](Cc2ccc3ccccc3c2)C(=O)NC2(C(=O)N[C@@H](CCCCN(C)C(C)=O)C(=O)N[C@@H](CC(N)=O)C(=O)N[C@@H](Cc3cccnc3)C(=O)N(C)CC(=O)N(C)C)CCOCC2)NC1=O` [compound 416, cPEG3aCO-Pen(3)-Dab(Me)3-T-7MeW-K(NMeAc)-Pen(3)-APEG3F-2Nal-THP-K(NMeAc)-N-3Pya-Sar-CON(Me)2] ({Me3N+(CH2)2O(CH2)2O(CH2)2CO}-[Pen][X20]T[Trp(7-Me)][Lys(Me)](Ac)[Pen]Y(CH2CH2OCH2CH2OCH2CH2NMe3+)[2Nal][Thp][Lys(Me)](Ac)N[3Pal][Sar]-NMe2; disulfide 1-6), the IC50 at IL-23R amounted to 1.2 nM. Besides, in data set [1] (read-out: EPSA), the EPSA stood at 166 A^2.

On to `COCCOCCOCC(=O)NCC[N+](C)(C)CC(=O)N[C@@H]1C(=O)N[C@@H](CC(=O)N(C)C)C(=O)N[C@@H]([C@@H](C)O)C(=O)N[C@@H](Cc2c[nH]c3c(C)cccc23)C(=O)N[C@@H](CCC(=O)N(C)C)C(=O)N[C@H](C(=O)N[C@@H](Cc2ccc(OCCN)cc2)C(=O)N[C@@H](Cc2ccc3ccccc3c2)C(=O)NC2(C(=O)N[C@@H](CCC(=O)N(C)C)C(=O)N[C@@H](CC(N)=O)C(=O)N[C@@H](Cc3cccnc3)C(=O)N(C)CC(N)=O)CCOCC2)C(C)(C)SSC1(C)C` [compound 146, mPEG3CO-SP6-Pen(3)-N(N(Me)2)-T-7MeW-Q(N(Me)2)-Pen(3)-AEF-2Nal-THP-Q(N(Me)2)-N-3Pya-Sar-CONH2] ({Decanoyl(3,6,9-trioxa)}-[X24][Pen]D(NMe2)T[Trp(7-Me)]E(NMe2)[Pen][AEF][2Nal][Thp]E(NMe2)N[3Pal][Sar]-NH2; disulfide 2-7), for which the IC50 at IL-23R was 3.8 nM. Moreover, in data set [1] (read-out: EPSA), the EPSA worked out at 152 A^2.

As for `CC(=O)NCCCC[C@@H]1NC(=O)[C@H](Cc2c[nH]c3c(C)cccc23)NC(=O)[C@H]([C@@H](C)O)NC(=O)[C@H](CC(N)=O)NC(=O)[C@@H](NC(=O)CCOCCOCC[N+](C)(C)C)C(C)(C)SSC(C)(C)[C@@H](C(=O)N[C@@H](Cc2ccc(OCCNC(=N)N)cc2)C(=O)N[C@@H](Cc2ccc3ccccc3c2)C(=O)NC2(C(=O)N[C@@H](CCCCNC(C)=O)C(=O)N[C@@H](CC(N)=O)C(=O)N[C@@H](Cc3cccnc3)C(=O)N(C)CC(N)=O)CCOCC2)NC1=O` [compound 471, cPEG3aCO-Pen(3)-N-T-7MeW-K(Ac)-Pen(3)-AEF(G)-2Nal-THP-K(Ac)-N-3Pya-Sar-CONH2] ({Me3N+(CH2)2O(CH2)2O(CH2)2CO}-[Pen]NT[Trp(7-Me)]K(Ac)[Pen]Y(Ethyl(2-guanidino))[2Nal][Thp]K(Ac)N[3Pal][Sar]-NH2; disulfide 1-6), on IL-23R, the IC50 worked out at 0.69 nM. Further, in data set [1] (read-out: EPSA), the EPSA worked out at 174 A^2.
